Values after ≈ are worked out from the molar mass of the structure shown. Starred links: 1 amine or outer side, 2 acyl side, 3 side chain; linkers in the order of their positions; H or OH if unused. Positions of bridges follow the written chain, without caps; N, C: chain ends. Residues, ends and D or L forms follow the SMILES beside them. mXylylene = c1cc(C[*:1])cc(C[*:2])c1; pXylylene = c1cc(C[*:2])ccc1C[*:1]; X1 = C(=CC[*:2])C[*:1]
Tests used:
[1] = 90 minute cytotoxicity assay (LDH release), renal toxicity; format: cell-based
Text: (§1) In some embodiments, a peptide provided herein has renal toxicity that is at least 10% (e.g., at least 15%, at least 20%, at least 25%, at least 30%, at least 35%, at least 40%, at least 45%, at least 50%, at least 55%, at least 60%, at least 65%, at least 65%, at least 70%, at least 75%, at least 80%, at least 85%, at least 90%, at least 95%, at least 99%) lower than the renal toxicity of the reference. The renal toxicity of a peptide can be measured in vitro using a renal proximal tubule epithelial cell (RPTEC) renal toxicity assay.
(§2) Cell culture: RPTEC were maintained in MEM media supplemented with growth factors. HEPG2 cell line was maintained in Eagle's Minimum Essential Medium (EMEM) supplemented with fetal bovine serum to a final concentration of 10%.
90 minute cytotoxicity assay: Cells were plated in a 96-well format, and after overnight incubation, media was replaced with fresh media. Serial dilutions of StAMPs from a 5 mg/mL water stock, or vehicle, were added to the cells in a final volume of 100 μl. After incubating at 37° C. for 90 min, 50 μl of cell culture media was transferred to a clear 96-well plate, incubated with 50 μl of lactate dehydrogenase (LDH) assay reagent for 10 min, and absorbance measured at 490 nm on a microplate reader.
(§3) Renal toxicity was measured after 90 minutes of incubation, while liver toxicity was measured after 48 hours of incubation with StAMPs. N/A=not tested.

[2] = 48 hours cytotoxicity assay (CellTiter-Glo), liver toxicity; format: cell-based, human
Text: as §1, with “hepatic” for “renal”, “human liver cells (e.g., HepG2)” for “renal proximal tubule epithelial cell (RPTEC) renal”
as §2
48 hours cytotoxicity assay: Cells were plated in a 96-well format, and after 4 hour incubation to allow attachment, serial dilutions of StAMPs from a 5 mg/mL water stock, or vehicle, were then added to the cells in a final volume of 100 μl. After incubating at 37° C. for 48 hours, 100 μl of CellTiter-Glo® reagent was added to the cells, and the plates were incubated 10 minutes at room temperature. Luminescence was then measured on a microplate reader.
as §3

SMILES	IC50 [1]	IC50 [2]
CC[C@H](C)[C@H](NC(=O)CN)C(=O)N[C@@H](Cc1ccccc1)C(=O)N[C@H]1CSCC=CCSC[C@@H](C(=O)N[C@@H](CCCCN)C(=O)N[C@@H](CCCCN)C(=O)N[C@H](C(=O)N[C@@H](CCCCN)C(=O)N[C@@H](CC(N)=O)C(=O)N[C@@H](CC(C)C)C(=O)N[C@@H](CC(C)C)C(=O)N[C@H](C(=O)N[C@@H](CO)C(=O)NCC(=O)N[C@@H](CC(C)C)C(=O)N[C@@H](CCCCN)C(=O)NCC(N)=O)[C@@H](C)CC)[C@@H](C)CC)NC(=O)[C@H](C)NC(=O)[C@H](CC(C)C)NC(=O)[C@H](CCCCN)NC1=O [compound 7] (H-GIFCKLACKKIKNLLISGLKG-NH2; linker 4-8 via X1; N-terminus assumed)	62 µg/mL (≈ 27 µM)	51 µg/mL (≈ 22.2 µM)
CC[C@H](C)[C@H](NC(=O)CN)C(=O)N[C@@H](Cc1ccccc1)C(=O)N[C@@H](CO)C(=O)N[C@@H](CCCCN)C(=O)N[C@H]1CSCc2ccc(cc2)CSC[C@@H](C(=O)N[C@H](C(=O)N[C@@H](CCCCN)C(=O)N[C@@H](CC(N)=O)C(=O)N[C@@H](CC(C)C)C(=O)N[C@@H](CC(C)C)C(=O)N[C@H](C(=O)N[C@@H](CO)C(=O)NCC(=O)N[C@@H](CC(C)C)C(=O)N[C@@H](CCCCN)C(=O)NCC(N)=O)[C@@H](C)CC)[C@@H](C)CC)NC(=O)[C@H](CCCCN)NC(=O)CNC(=O)[C@H](C)NC1=O [compound 8] (H-GIFSKCAGKCIKNLLISGLKG-NH2; linker 6-10 via pXylylene; N-terminus assumed)	119 µg/mL (≈ 52.8 µM)	15 µg/mL (≈ 6.66 µM)
CC[C@H](C)[C@H](NC(=O)CN)C(=O)N[C@@H](Cc1ccccc1)C(=O)N[C@@H](CO)C(=O)N[C@@H](CCCCN)C(=O)N[C@H]1CSCC=CCSC[C@@H](C(=O)N[C@H](C(=O)N[C@@H](CCCCN)C(=O)N[C@@H](CC(N)=O)C(=O)N[C@@H](CC(C)C)C(=O)N[C@@H](CC(C)C)C(=O)N[C@H](C(=O)N[C@@H](CO)C(=O)NCC(=O)N[C@@H](CC(C)C)C(=O)N[C@@H](CCCCN)C(=O)NCC(N)=O)[C@@H](C)CC)[C@@H](C)CC)NC(=O)[C@H](CCCCN)NC(=O)CNC(=O)[C@H](C)NC1=O [compound 9] (H-GIFSKCAGKCIKNLLISGLKG-NH2; linker 6-10 via X1; N-terminus assumed)	> 200 µg/mL	39 µg/mL (≈ 17.7 µM)
CC[C@H](C)[C@H](NC(=O)CN)C(=O)N[C@@H](Cc1ccccc1)C(=O)N[C@@H](CO)C(=O)N[C@@H](CCCCN)C(=O)N[C@@H](CC(C)C)C(=O)N[C@@H](C)C(=O)NCC(=O)N[C@@H](CCCCN)C(=O)N[C@@H](CCCCN)C(=O)N[C@H](C(=O)N[C@@H](CCCCN)C(=O)N[C@H]1CSCc2cccc(c2)CSC[C@@H](C(=O)NCC(=O)N[C@@H](CC(C)C)C(=O)N[C@@H](CCCCN)C(=O)NCC(N)=O)NC(=O)[C@H]([C@@H](C)CC)NC(=O)[C@H](CC(C)C)NC(=O)[C@H](CC(C)C)NC1=O)[C@@H](C)CC [compound 23] (H-GIFSKLAGKKIKCLLICGLKG-NH2; linker 13-17 via mXylylene; N-terminus assumed)	52 µg/mL (≈ 22.7 µM)	97 µg/mL (≈ 42.3 µM)
CC[C@H](C)[C@H](NC(=O)CN)C(=O)N[C@@H](Cc1ccccc1)C(=O)N[C@@H](CO)C(=O)N[C@@H](CCCCN)C(=O)N[C@@H](CC(C)C)C(=O)N[C@@H](C)C(=O)NCC(=O)N[C@@H](CCCCN)C(=O)N[C@@H](CCCCN)C(=O)N[C@H](C(=O)N[C@@H](CCCCN)C(=O)N[C@H]1CSCc2ccc(cc2)CSC[C@@H](C(=O)NCC(=O)N[C@@H](CC(C)C)C(=O)N[C@@H](CCCCN)C(=O)NCC(N)=O)NC(=O)[C@H]([C@@H](C)CC)NC(=O)[C@H](CC(C)C)NC(=O)[C@H](CC(C)C)NC1=O)[C@@H](C)CC [compound 24] (H-GIFSKLAGKKIKCLLICGLKG-NH2; linker 13-17 via pXylylene; N-terminus assumed)	54 µg/mL (≈ 23.6 µM)	103 µg/mL (≈ 44.9 µM)
CC[C@H](C)[C@H](NC(=O)CN)C(=O)N[C@@H](Cc1ccccc1)C(=O)N[C@@H](CO)C(=O)N[C@@H](CCCCN)C(=O)N[C@@H](CC(C)C)C(=O)N[C@@H](C)C(=O)NCC(=O)N[C@@H](CCCCN)C(=O)N[C@@H](CCCCN)C(=O)N[C@H](C(=O)N[C@@H](CCCCN)C(=O)N[C@H]1CSCC=CCSC[C@@H](C(=O)NCC(=O)N[C@@H](CC(C)C)C(=O)N[C@@H](CCCCN)C(=O)NCC(N)=O)NC(=O)[C@H]([C@@H](C)CC)NC(=O)[C@H](CC(C)C)NC(=O)[C@H](CC(C)C)NC1=O)[C@@H](C)CC [compound 25] (H-GIFSKLAGKKIKCLLICGLKG-NH2; linker 13-17 via X1; N-terminus assumed)	200 µg/mL (≈ 89.2 µM)	141 µg/mL (≈ 62.9 µM)
CC[C@H](C)[C@H](NC(=O)CN)C(=O)N[C@@H](Cc1ccccc1)C(=O)N[C@@H](CO)C(=O)N[C@@H](CCCCN)C(=O)N[C@@H](CC(C)C)C(=O)N[C@@H](C)C(=O)NCC(=O)N[C@@H](CCCCN)C(=O)N[C@@H](CCCCN)C(=O)N[C@H](C(=O)N[C@@H](CCCCN)C(=O)N[C@@H](CC(N)=O)C(=O)N[C@H]1CSCc2cccc(c2)CSC[C@@H](C(=O)N[C@@H](CC(C)C)C(=O)N[C@@H](CCCCN)C(=O)NCC(N)=O)NC(=O)[C@H](CO)NC(=O)[C@H]([C@@H](C)CC)NC(=O)[C@H](CC(C)C)NC1=O)[C@@H](C)CC [compound 26] (H-GIFSKLAGKKIKNCLISCLKG-NH2; linker 14-18 via mXylylene; N-terminus assumed)	64 µg/mL (≈ 27.6 µM)	44 µg/mL (≈ 18.9 µM)
CC[C@H](C)[C@H](NC(=O)CN)C(=O)N[C@@H](Cc1ccccc1)C(=O)N[C@@H](CO)C(=O)N[C@@H](CCCCN)C(=O)N[C@@H](CC(C)C)C(=O)N[C@@H](C)C(=O)NCC(=O)N[C@@H](CCCCN)C(=O)N[C@@H](CCCCN)C(=O)N[C@H](C(=O)N[C@@H](CCCCN)C(=O)N[C@@H](CC(N)=O)C(=O)N[C@H]1CSCc2ccc(cc2)CSC[C@@H](C(=O)N[C@@H](CC(C)C)C(=O)N[C@@H](CCCCN)C(=O)NCC(N)=O)NC(=O)[C@H](CO)NC(=O)[C@H]([C@@H](C)CC)NC(=O)[C@H](CC(C)C)NC1=O)[C@@H](C)CC [compound 27] (H-GIFSKLAGKKIKNCLISCLKG-NH2; linker 14-18 via pXylylene; N-terminus assumed)	> 200 µg/mL	> 200 µg/mL
CC[C@H](C)[C@H](NC(=O)CN)C(=O)N[C@@H](Cc1ccccc1)C(=O)N[C@@H](CO)C(=O)N[C@@H](CCCCN)C(=O)N[C@@H](CC(C)C)C(=O)N[C@@H](C)C(=O)NCC(=O)N[C@@H](CCCCN)C(=O)N[C@@H](CCCCN)C(=O)N[C@H](C(=O)N[C@@H](CCCCN)C(=O)N[C@@H](CC(N)=O)C(=O)N[C@H]1CSCC=CCSC[C@@H](C(=O)N[C@@H](CC(C)C)C(=O)N[C@@H](CCCCN)C(=O)NCC(N)=O)NC(=O)[C@H](CO)NC(=O)[C@H]([C@@H](C)CC)NC(=O)[C@H](CC(C)C)NC1=O)[C@@H](C)CC [compound 28] (H-GIFSKLAGKKIKNCLISCLKG-NH2; linker 14-18 via X1; N-terminus assumed)	> 200 µg/mL	> 200 µg/mL
CC[C@H](C)[C@H](NC(=O)CN)C(=O)N[C@@H](Cc1ccccc1)C(=O)N[C@@H](CO)C(=O)N[C@@H](CCCCN)C(=O)N[C@@H](CC(C)C)C(=O)N[C@@H](C)C(=O)NCC(=O)N[C@@H](CCCCN)C(=O)N[C@@H](CCCCN)C(=O)N[C@H](C(=O)N[C@@H](CCCCN)C(=O)N[C@@H](CC(N)=O)C(=O)N[C@@H](CC(C)C)C(=O)N[C@@H](CC(C)C)C(=O)N[C@H]1CSCC=CCSC[C@@H](C(=O)NCC(N)=O)NC(=O)[C@H](CC(C)C)NC(=O)CNC(=O)[C@H](CO)NC1=O)[C@@H](C)CC [compound 34] (H-GIFSKLAGKKIKNLLCSGLCG-NH2; linker 16-20 via X1; N-terminus assumed)	~200 µg/mL (≈ 90.8 µM)	119 µg/mL (≈ 54 µM)
CC[C@H](C)[C@H](NC(=O)CN)C(=O)N[C@@H](Cc1ccccc1)C(=O)N[C@@H](CO)C(=O)N[C@@H](CCCCN)C(=O)N[C@@H](CC(C)C)C(=O)N[C@@H](C)C(=O)NCC(=O)N[C@@H](CCCCN)C(=O)N[C@@H](CCCCN)C(=O)N[C@H](C(=O)N[C@@H](CCCCN)C(=O)N[C@@H](CC(N)=O)C(=O)N[C@@H](CC(C)C)C(=O)N[C@@H](CC(C)C)C(=O)N[C@H](C(=O)N[C@H]1CSCC=CCSC[C@@H](C(N)=O)NC(=O)[C@H](CCCCN)NC(=O)[C@H](CC(C)C)NC(=O)CNC1=O)[C@@H](C)CC)[C@@H](C)CC [compound 35] (H-GIFSKLAGKKIKNLLICGLKC-NH2; linker 17-21 via X1; N-terminus assumed)	~200 µg/mL (≈ 87 µM)	~200 µg/mL (≈ 87 µM)

Reference: US20240391965A1, “STAPLED ANTIMICROBIAL PEPTIDES (STAMPS) AND USES THEREOF” (Lytica Therapeutics, Inc., priority 2021, published 2024)
